Converted amounts (≈) assume the structure as drawn.
What was measured:
[1] = Solubility determination in water (HPLC); assay type: physicochemical; conditions: thermodynamic from solid, about 25° C., equilibrated no less than 12 hours, read-out: aqueous solubility
Protocol: The vial contents were mixed for 30 seconds using a VWR mini vortexter followed by sonication (Branson 1510) for 1 minutes. Vials were placed into a constant temperature bath (i.e., about 25° C.) and allowed to equilibrate for no less than 12 hours. The resulting suspensions were transferred to eppendorf tubes each equipped with a 0.2 μm nylon filter (Costar 8168) and were centrifuged for 10 minutes at 14,000 rpms. The supernatant from each eppendorf tube was collected and diluted with HPLC grade acetonitrile with dilution factor of 200, 400 or 500. Each solution was analyzed by an HPLC method. […]
Quantification was effected by comparison of the HPLC peak area for each test solution with the peak area taken from a standard plot of concentration versus peak area for standards of known concentration. As is conventional, the standard concentrations for 4-[5-methyl-6-(2-methyl-pyridin-3-yloxy)-pyrimidin-4-yloxy]piperidine-1-carboxylic acid isopropyl ester were selected to fall within a linear range of concentration versus absorbance for the UV detector employed. […]

[2] = target: CYP2C9 (Homo sapiens, UniProt P11712); assay: P450 inhibition screening assay, CYP2C9; assay type: in vitro ADME; conditions: cDNA expressed human enzyme, fluorescent substrate DBF; read-out: IC50 against the CYP2C9 enzyme
Protocol: (§1) The P450 inhibition screening assay was performed in 96-well microtiter plates by using cDNA expressed human enzymes (CYP1A2, 2C9, 2C19, 2D6 and 3A4). […] The enzymatic reaction was initiated by adding individual P450 enzymes pre-mixed with P450-specific fluorescent substrates, and stopped by adding acetonitrile (or NaOH for DBF assays) to the reaction mixture after incubation at 37° C. for a given amount of time. The fluorescence of metabolites was measured on a Biotek fluorescence reader. The results were expressed as inhibition percentage relative to the control (no test compound). IC50 values were estimated from the concentration response curve. […] Test compounds are classified into three categories based on their IC50 values.

[3] = target: CYP2D6 (Homo sapiens, UniProt P10635); assay: P450 inhibition screening assay, CYP2D6; assay type: in vitro ADME; conditions: cDNA expressed human enzyme, fluorescent substrate AMMC
Protocol: as §1

[4] = target: CYP3A4 (Homo sapiens, UniProt P08684); assay: P450 inhibition screening assay, CYP3A4; assay type: in vitro ADME; conditions: cDNA expressed human enzyme, fluorescent substrates
Protocol: as §1

[5] = target: CYP2C19 (Homo sapiens, UniProt P33261); assay: P450 inhibition screening assay, CYP2C19; assay type: in vitro ADME; conditions: cDNA expressed human enzyme, fluorescent substrate DBF
Protocol: as §1

[6] = target: T1, CYP1A2 (Homo sapiens, UniProt P05177); assay: P450 inhibition screening assay, CYP1A2; assay type: in vitro ADME; conditions: cDNA expressed human enzyme, fluorescent substrate CEC
T1 sequence (P05177 1-516): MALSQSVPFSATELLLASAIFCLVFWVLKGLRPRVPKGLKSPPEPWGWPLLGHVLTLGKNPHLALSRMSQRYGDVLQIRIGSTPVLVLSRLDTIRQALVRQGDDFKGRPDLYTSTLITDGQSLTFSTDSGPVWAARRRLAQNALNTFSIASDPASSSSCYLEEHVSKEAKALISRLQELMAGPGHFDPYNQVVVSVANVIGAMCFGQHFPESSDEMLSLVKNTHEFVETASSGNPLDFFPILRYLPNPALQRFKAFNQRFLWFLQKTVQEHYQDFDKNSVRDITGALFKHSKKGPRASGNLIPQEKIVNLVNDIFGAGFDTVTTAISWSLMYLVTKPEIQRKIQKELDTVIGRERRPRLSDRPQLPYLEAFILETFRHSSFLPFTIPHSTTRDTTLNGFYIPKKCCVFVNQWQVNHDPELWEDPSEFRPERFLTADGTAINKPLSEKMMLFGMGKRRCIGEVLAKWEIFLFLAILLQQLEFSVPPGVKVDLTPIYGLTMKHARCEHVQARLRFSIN
Protocol: as §1

[7] = tested on: Male Sprague Dawley rats; assay: Oral glucose tolerance test (oGTT) in rats; assay type: in vivo; conditions: rat oGTT, dextrose 3 g/kg
Protocol: General Procedure—Oral Glucose Tolerance Test (oGTT)
Male Sprague Dawley rats (Harlan, San Diego, Calif.) weighing approximately 350-375 g were fasted for 16 hours and randomly grouped (n=6) to receive a RUP3 agonist at 0.3, 3 or 30 mg/kg. Compounds were delivered orally via a gavage needle (p.o., volume 2 mL/kg). At time 0, levels of blood glucose were assessed using a glucometer (Accu-Chek Advantage, Roche Diagnostics), and rats were administered either vehicle (20% hydroxypropyl-beta-cyclodextrin) or test compound. Thirty minutes after administration of test compound, levels of blood glucose were again assessed, and rats were administered dextrose orally at a dose of 3 g/kg. Blood glucose measurements were then taken 30 min, 60 min, and 120 min after this time.

CYP2C19, sequence (P33261 whole entry): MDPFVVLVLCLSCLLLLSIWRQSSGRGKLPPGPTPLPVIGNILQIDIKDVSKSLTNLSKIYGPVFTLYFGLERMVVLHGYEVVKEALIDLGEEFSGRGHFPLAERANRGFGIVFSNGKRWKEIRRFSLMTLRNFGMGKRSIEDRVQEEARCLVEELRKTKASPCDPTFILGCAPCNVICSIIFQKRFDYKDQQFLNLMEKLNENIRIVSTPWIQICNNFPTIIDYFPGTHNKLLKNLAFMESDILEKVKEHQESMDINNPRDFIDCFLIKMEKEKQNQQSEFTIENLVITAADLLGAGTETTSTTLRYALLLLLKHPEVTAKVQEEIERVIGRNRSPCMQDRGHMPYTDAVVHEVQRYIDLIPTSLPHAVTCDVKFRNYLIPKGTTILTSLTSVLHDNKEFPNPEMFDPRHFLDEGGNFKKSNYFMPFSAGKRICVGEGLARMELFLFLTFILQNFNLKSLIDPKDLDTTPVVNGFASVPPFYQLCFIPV
CYP2D6, sequence (P10635 whole entry): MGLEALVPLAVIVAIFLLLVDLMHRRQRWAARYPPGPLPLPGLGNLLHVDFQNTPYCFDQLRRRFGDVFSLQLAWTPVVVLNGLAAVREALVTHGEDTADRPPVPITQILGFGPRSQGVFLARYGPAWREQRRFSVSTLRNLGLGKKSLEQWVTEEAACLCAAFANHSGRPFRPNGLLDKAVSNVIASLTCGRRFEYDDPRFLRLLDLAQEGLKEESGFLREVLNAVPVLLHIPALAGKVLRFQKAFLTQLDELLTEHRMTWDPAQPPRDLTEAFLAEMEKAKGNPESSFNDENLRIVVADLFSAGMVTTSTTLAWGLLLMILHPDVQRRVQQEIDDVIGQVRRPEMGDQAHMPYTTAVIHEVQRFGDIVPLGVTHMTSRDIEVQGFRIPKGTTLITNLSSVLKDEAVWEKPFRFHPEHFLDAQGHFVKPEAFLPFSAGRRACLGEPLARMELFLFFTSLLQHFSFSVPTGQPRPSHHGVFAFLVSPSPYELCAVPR
CYP3A4, sequence (P08684 whole entry): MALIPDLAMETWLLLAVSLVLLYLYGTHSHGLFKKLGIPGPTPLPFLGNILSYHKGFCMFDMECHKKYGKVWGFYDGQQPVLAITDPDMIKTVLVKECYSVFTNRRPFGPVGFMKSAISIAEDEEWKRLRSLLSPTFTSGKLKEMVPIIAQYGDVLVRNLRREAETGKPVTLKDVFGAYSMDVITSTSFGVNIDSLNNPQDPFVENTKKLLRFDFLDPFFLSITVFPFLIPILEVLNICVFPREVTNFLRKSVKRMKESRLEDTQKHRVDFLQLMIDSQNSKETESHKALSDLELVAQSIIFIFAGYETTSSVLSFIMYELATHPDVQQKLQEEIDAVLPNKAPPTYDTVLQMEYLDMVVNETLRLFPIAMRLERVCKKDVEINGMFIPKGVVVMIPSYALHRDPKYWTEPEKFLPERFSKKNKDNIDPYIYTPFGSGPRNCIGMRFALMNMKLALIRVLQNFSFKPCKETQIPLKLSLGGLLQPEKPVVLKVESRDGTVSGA
CYP2C9, sequence (P11712 whole entry): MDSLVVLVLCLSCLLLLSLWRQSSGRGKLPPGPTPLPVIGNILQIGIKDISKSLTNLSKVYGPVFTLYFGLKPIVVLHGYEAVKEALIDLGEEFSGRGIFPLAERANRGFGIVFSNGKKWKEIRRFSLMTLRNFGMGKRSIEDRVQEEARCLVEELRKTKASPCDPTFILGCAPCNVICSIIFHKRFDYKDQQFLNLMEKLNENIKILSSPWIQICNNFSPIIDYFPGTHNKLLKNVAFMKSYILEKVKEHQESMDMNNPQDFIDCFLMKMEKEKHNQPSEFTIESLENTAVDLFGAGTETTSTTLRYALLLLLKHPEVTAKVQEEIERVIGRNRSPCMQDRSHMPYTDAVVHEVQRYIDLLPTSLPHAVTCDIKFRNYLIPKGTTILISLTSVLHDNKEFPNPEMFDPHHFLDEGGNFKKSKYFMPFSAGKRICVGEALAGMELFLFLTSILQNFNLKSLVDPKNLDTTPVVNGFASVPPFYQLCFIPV

- solubility [1]: ~40 mg/mL (≈ 104 mM)
- IC50 [2]: > 15 µM
- IC50 [3]: > 40 µM
- IC50 [4]: > 40 µM
- IC50 [5]: ~10 µM
- IC50 [6]: > 40 µM
Structure (SMILES): Cc1ncccc1Oc1ncnc(OC2CCN(C(=O)OC(C)C)CC2)c1C [4-[5-methyl-6-(2-methyl-pyridin-3-yloxy)-pyrimidin-4-yloxy]-piperidine-1-carboxylic acid isopropyl ester]
- Mean % Inhibition of Glucose Excursion ([7]; 0.3 mg/Kg p.o.): 22%
- Mean % Inhibition of Glucose Excursion ([7]; 3 mg/Kg p.o.): 24%
- Mean % Inhibition of Glucose Excursion ([7]; 30 mg/Kg p.o.): 70%

Source: patent publication US20100160359A1, “Modulators of Metabolism and the Treatment of Disorders Related Thereto” (ARENA PHARMACEUTICALS, INC., priority 2005, published 2010)
